Assays:
MOLT-4 [1] = settings: platination level that reduces CAT activity to 37% of control, taken from ref. 26; cited from earlier work
HuT 78 [2] = assay: inhibition of growth of HuT 78 cells, 3 day continuous cisplatin exposure; format: cell-based, human; settings: continuous exposure to cisplatin for 3 days, 50% reduction in cell number
Experimental: (§1) The expression of total ERCC1 mRNA, exon VIII^- mRNA and XPA mRNA was examined in three human T lymphocyte cell lines (HuT 78, H9 and MOLT-4), using essentially the methods described in Example 1. The cells were obtained from the American Type Culture Collection, Rockville, Md. Cells were cultured in RPMI-1640 medium supplemented with 10% heat-inactivated calf serum, 100 μg/ml penicillin, 100 μg/ml streptomycin and 2 mM glutamine.
(§2) All cell lines were assayed for sensitivity to cisplatin by measurement of the inhibition of growth following 3 day cisplatin exposures ranging from 0.5 to 100 μM. Cell lines were seeded at an initial cell density of 5×10^4 cells/ml, After continuous contact with drug for 3 days, cell counts obtained by Coulter counter were expressed as a percentage of counts obtained from aliquots of control cells, cultured in the absence of drug. Cells treated similarly but for the absence of drug served as controls. IC50 values were assessed as those drug levels effecting a 50% reduction in cell number as compared to Untreated cells.

MOLT-4 [3] = assay: inhibition of growth of MOLT-4 cells, 3 day continuous cisplatin exposure; format: cell-based, human; settings: continuous exposure to cisplatin for 3 days, 50% reduction in cell number
Experimental: as §1, §2

H9 [4] = settings: removed in 6 hrs following a 1 hr, 10 μM exposure, taken from ref. 26; cited from earlier work
HuT 78 [5] = settings: platination level that reduces CAT activity to 37% of control, taken from ref. 26; cited from earlier work
HuT 78 [6] = settings: removed in 6 hrs following a 1 hr, 10 μM exposure, taken from ref. 26; cited from earlier work
H9 [7] = assay: inhibition of growth of H9 cells, 3 day continuous cisplatin exposure; format: cell-based, human; settings: continuous exposure to cisplatin for 3 days, 50% reduction in cell number
Experimental: as §1, §2

H9 [8] = settings: platination level that reduces CAT activity to 37% of control, taken from ref. 26; cited from earlier work
MOLT-4 [9] = settings: removed in 6 hrs following a 1 hr, 10 μM exposure, taken from ref. 26; cited from earlier work
[10] = system: three human T lymphocyte cell lines (HuT 78, H9 and MOLT-4); assay: cisplatin sensitivity compared across the three T cell lines; format: cell-based; settings: across HuT 78, H9 and MOLT-4
Experimental: as §1, §2

Compound: N.N.[Cl][Pt][Cl] [cisplatin]
- Reactivation of platinated plasmid Bo (MOLT-4 [1]): 13 adducts/plasmid
- IC50 (HuT 78 [2]): 830 nM
- IC50 (MOLT-4 [3]): 330 nM
- Cellular DNA Repair (pg Pt/μg DNA removed in 6 hrs) (H9 [4]): 3.9 pg Pt/μg DNA
- Reactivation of platinated plasmid Bo (HuT 78 [5]): 22 adducts/plasmid
- Cellular DNA Repair (pg Pt/μg DNA removed in 6 hrs) (HuT 78 [6]): 5.6 pg Pt/μg DNA
- IC50 (H9 [7]): 450 nM
- Reactivation of platinated plasmid Bo (H9 [8]): 18 adducts/plasmid
- Cellular DNA Repair (pg Pt/μg DNA removed in 6 hrs) (MOLT-4 [9]): 2.3 pg Pt/μg DNA
- cisplatin sensitivity varied by [10]: about 3 fold
